Measurements taken from patent US9593149B2, “Amylin and calcitonin receptor agonist” (Novo Nordisk A/S, priority 2014, dated 2017).
Converted amounts (≈) assume the structure as drawn. Numbered stars: 1 amine (or outer) side, 2 acyl side, 3 side chain; on linkers, the order of the positions; unused ones are H or OH. Peptide text beside a SMILES is read from it. * marks the point of attachment. C20 diacid = O=C(O)CCCCCCCCCCCCCCCCCCC(=O)*; C18 diacid = O=C(O)CCCCCCCCCCCCCCCCC(=O)*; γGlu = O=C(O)[C@H](CCC(=O)[*:2])N[*:1]

Assay: Assay (IV) determination of solubility
Format: physicochemical
Experimental: Assay (IV)—Determination of Solubility
The mimylin peptide was dissolved in water at ˜500 nmol/ml and mixed 1:1 with a series of buffers (100 mM glycylglycine pH 3.0, 100 mM glycylglycine pH 4.0, 100 mM glycylglycine pH 5.0, 100 mM bistrispropane pH 6.0, 100 mM bistrispropane pH 6.5, 100 mM bistrispropane pH 7.0, 100 mM bistrispropane pH 7.5, 100 mM bistrispropane pH 8.0).

SMILES	Solubility (pH 3.0)	Solubility (pH 4.0)	Solubility (pH 5.0)	Solubility (pH 6.0)	Solubility (pH 6.5)	Solubility (pH 7.0)	Solubility (pH 7.5)	Solubility (pH 8.0)	solubility at 18 h (pH 4.0)	solubility at 18 h (pH 6.0)
CC(C)C[C@H](NC(=O)[C@H](CCC(=O)O)NC(=O)[C@H](Cc1cnc[nH]1)NC(=O)[C@H](CC(C)C)NC(=O)[C@H](CCC(=O)O)NC(=O)[C@H](C)NC(=O)[C@H](CO)NC(=O)[C@H](CC(C)C)NC(=O)[C@H](CCCNC(=N)N)NC(=O)CNC(=O)[C@H](CC(C)C)NC(=O)[C@@H](NC(=O)[C@H](C)NC(=O)[C@@H](NC(=O)[C@H](CO)NC(=O)[C@H](CC(C)C)NC(=O)[C@@H]1CCCN1C(=O)[C@H](CO)NC(=O)[C@H](C)NC(=O)[C@H](CCC(=O)O)NC(=O)CCCCCCCCCCCCCCCCC(=O)O)[C@@H](C)O)C(C)C)C(=O)N[C@@H](C)C(=O)N[C@H](C(=O)N[C@@H](CC(C)C)C(=O)N1CCC[C@H]1C(=O)N[C@@H](CCCNC(=N)N)C(=O)N[C@H](C(=O)N[C@@H](CCC(=O)O)C(=O)N[C@H](C(=O)NCC(=O)N1CCC[C@H]1C(=O)N[C@@H](CCC(=O)O)C(=O)N[C@@H](CO)C(=O)N1CCC[C@H]1C(N)=O)[C@@H](C)O)[C@@H](C)O)[C@@H](C)O [compound 30, [N-terminal(C18 diacid), 4P, 9V]mimylin] ({C18 diacid}-EASPLSTAVLGRLSAELHELATLPRTETGPESP-NH2)	≧200 μM	≧200 μM	≧200 μM	≧200 μM	≧200 μM	≧200 μM	≧200 μM	≧200 μM	–	–
CC(C)C[C@H](NC(=O)[C@H](C)NC(=O)[C@H](C)NC(=O)[C@@H](NC(=O)[C@H](CO)NC(=O)[C@H](CC(C)C)NC(=O)[C@H](CCC(=O)O)NC(=O)[C@H](CO)NC(=O)[C@H](C)NC(=O)CC[C@H](NC(=O)CCCCCCCCCCCCCCCCCCC(=O)O)C(=O)O)[C@@H](C)O)C(=O)NCC(=O)N[C@@H](Cc1cnc[nH]1)C(=O)N[C@@H](CC(C)C)C(=O)N[C@@H](CO)C(=O)N[C@@H](C)C(=O)N[C@@H](CCC(=O)O)C(=O)N[C@@H](CC(C)C)C(=O)N[C@@H](Cc1cnc[nH]1)C(=O)N[C@@H](CCC(=O)O)C(=O)N[C@@H](CC(C)C)C(=O)N[C@@H](C)C(=O)N[C@H](C(=O)N[C@@H](CC(C)C)C(=O)N1CCC[C@H]1C(=O)N[C@@H](Cc1cnc[nH]1)C(=O)N[C@H](C(=O)N[C@@H](CCC(=O)O)C(=O)N[C@H](C(=O)NCC(=O)N[C@@H](CO)C(=O)NCC(=O)N[C@@H](CO)C(=O)N1CCC[C@H]1C(N)=O)[C@@H](C)O)[C@@H](C)O)[C@@H](C)O [compound 84, [N-terminal(C20 diacid-gGlu), des1, 12H, 25H, 30S, 31G]mimylin] ({C20 diacid-γGlu}-ASELSTAALGHLSAELHELATLPHTETGSGSP-NH2)	≧200 μM	≧200 μM	≧200 μM	≧200 μM	≧200 μM	≧200 μM	≧200 μM	≧200 μM	–	–
CC(C)C[C@H](NC(=O)[C@H](CCC(=O)O)NC(=O)[C@H](C)NC(=O)[C@H](CO)NC(=O)[C@H](CC(C)C)NC(=O)[C@H](CCCNC(=N)N)NC(=O)CNC(=O)[C@H](CC(C)C)NC(=O)[C@@H](NC(=O)[C@H](C)NC(=O)[C@@H](NC(=O)[C@H](CO)NC(=O)[C@H](CC(C)C)NC(=O)[C@H](CCC(=O)O)NC(=O)[C@H](CO)NC(=O)[C@H](C)NC(=O)[C@H](CCC(=O)O)NC(=O)CCCCCCCCCCCCCCCCC(=O)O)[C@@H](C)O)C(C)C)C(=O)N[C@@H](C)C(=O)N[C@@H](CCC(=O)O)C(=O)N[C@@H](CC(C)C)C(=O)N[C@@H](C)C(=O)N[C@H](C(=O)N[C@@H](CC(C)C)C(=O)N1CCC[C@H]1C(=O)N[C@@H](CCCNC(=N)N)C(=O)N[C@H](C(=O)N[C@@H](CCC(=O)O)C(=O)N[C@H](C(=O)NCC(=O)N1CCC[C@H]1C(=O)N[C@@H](CCC(=O)O)C(=O)N[C@@H](CO)C(=O)N1CCC[C@H]1C(N)=O)[C@@H](C)O)[C@@H](C)O)[C@@H](C)O [compound 33, [N-terminal(C18 diacid), 9V, 18A]mimylin] ({C18 diacid}-EASELSTAVLGRLSAELAELATLPRTETGPESP-NH2)	≧200 μM	–	≧200 μM	≧200 μM	≧200 μM	≧200 μM	≧200 μM	≧200 μM	1 µM (≈ 3.69 µg/mL)	–
CC(C)C[C@H](NC(=O)[C@H](CCCNC(=N)N)NC(=O)CNC(=O)[C@H](CC(C)C)NC(=O)[C@@H](NC(=O)[C@H](C)NC(=O)[C@@H](NC(=O)[C@@H](NC(=O)[C@H](CC(C)C)NC(=O)[C@H](CCC(=O)O)NC(=O)[C@H](CO)NC(=O)[C@H](C)NC(=O)CC[C@H](NC(=O)CCCCCCCCCCCCCCCCC(=O)O)C(=O)O)[C@@H](C)O)[C@@H](C)O)C(C)C)C(=O)N[C@@H](CCC(=O)O)C(=O)N[C@@H](C)C(=O)N[C@@H](CCC(=O)O)C(=O)N[C@@H](CC(C)C)C(=O)N[C@@H](Cc1cnc[nH]1)C(=O)N[C@@H](CCC(=O)O)C(=O)N[C@@H](CC(C)C)C(=O)N[C@H](C(=O)N[C@H](C(=O)N[C@@H](CC(C)C)C(=O)N1CCC[C@H]1C(=O)N[C@@H](CCCNC(=N)N)C(=O)N[C@H](C(=O)N[C@@H](CCC(=O)O)C(=O)N[C@H](C(=O)NCC(=O)N[C@H](C(=O)NCC(=O)N[C@H](C(=O)N1CCC[C@H]1C(N)=O)[C@@H](C)O)[C@@H](C)O)[C@@H](C)O)[C@@H](C)O)[C@@H](C)O)[C@@H](C)O [compound 106, [N-terminal(C18 diacid-gGlu), des1, 6T, 9V, 14E, 21T, 30T, 31G, 32T]mimylin] ({C18 diacid-γGlu}-ASELTTAVLGRLEAELHELTTLPRTETGTGTP-NH2)	≧200 μM	≧200 μM	≧200 μM	≧200 μM	≧200 μM	≧200 μM	≧200 μM	≧200 μM	–	–
CC(C)C[C@H](NC(=O)CNC(=O)[C@H](CO)NC(=O)[C@H](C)NC(=O)CC[C@H](NC(=O)CCCCCCCCCCCCCCCCCCC(=O)O)C(=O)O)C(=O)N[C@@H](CO)C(=O)N[C@H](C(=O)N[C@@H](CC(C)C)C(=O)N[C@H](C(=O)N[C@@H](CC(C)C)C(=O)NCC(=O)N[C@@H](CCCNC(=N)N)C(=O)N[C@@H](CC(C)C)C(=O)N[C@@H](CO)C(=O)N[C@@H](CCC(N)=O)C(=O)N[C@@H](CCC(=O)O)C(=O)N[C@@H](CC(C)C)C(=O)N[C@@H](Cc1cnc[nH]1)C(=O)N[C@@H](CCC(=O)O)C(=O)N[C@@H](CC(C)C)C(=O)N[C@@H](CCC(N)=O)C(=O)N[C@H](C(=O)N[C@@H](Cc1ccc(O)cc1)C(=O)N1CCC[C@H]1C(=O)N[C@@H](CCCNC(=N)N)C(=O)N[C@H](C(=O)N[C@@H](CCC(=O)O)C(=O)N[C@H](C(=O)NCC(=O)N[C@@H](CO)C(=O)N[C@@H](CCC(N)=O)C(=O)N[C@H](C(=O)N[C@@H](Cc1ccc(O)cc1)C(N)=O)[C@@H](C)O)[C@@H](C)O)[C@@H](C)O)[C@@H](C)O)C(C)C)[C@@H](C)O [compound 126, [N-terminal(C20 diacid-gGlu), des1, 4G, 8L, 9V, 15Q, 21Q, 23Y, 30S, 31Q, 32T, 33Y]mimylin] ({C20 diacid-γGlu}-ASGLSTLVLGRLSQELHELQTYPRTETGSQTY-NH2)	≧200 μM	–	–	–	≧200 μM	≧200 μM	≧200 μM	≧200 μM	–	161 µM (≈ 642 µg/mL)
CC(C)C[C@H](NC(=O)[C@H](CCC(=O)O)NC(=O)[C@H](Cc1cnc[nH]1)NC(=O)[C@H](CC(C)C)NC(=O)[C@H](CCC(=O)O)NC(=O)[C@H](C)NC(=O)[C@H](CO)NC(=O)[C@H](CC(C)C)NC(=O)[C@H](CCCNC(=N)N)NC(=O)CNC(=O)[C@H](CC(C)C)NC(=O)[C@@H](NC(=O)[C@H](C)NC(=O)[C@@H](NC(=O)[C@H](CO)NC(=O)[C@@H](NC(=O)[C@H](CCC(=O)O)NC(=O)[C@H](CO)NC(=O)[C@H](C)NC(=O)CC[C@H](NC(=O)CCCCCCCCCCCCCCCCC(=O)O)C(=O)O)C(C)C)[C@@H](C)O)C(C)C)C(=O)N[C@@H](C)C(=O)N[C@H](C(=O)N[C@@H](CC(C)C)C(=O)N1CCC[C@H]1C(=O)N[C@@H](CCCNC(=N)N)C(=O)N[C@H](C(=O)N[C@@H](CCC(=O)O)C(=O)N[C@H](C(=O)NCC(=O)N[C@@H](CO)C(=O)NCC(=O)N[C@@H](CO)C(=O)N1CCC[C@H]1C(N)=O)[C@@H](C)O)[C@@H](C)O)[C@@H](C)O [compound 86, [N-terminal(C18 diacid-gGlu), des1, 5V, 9V, 30S, 31G]mimylin] ({C18 diacid-γGlu}-ASEVSTAVLGRLSAELHELATLPRTETGSGSP-NH2)	≧200 μM	≧200 μM	≧200 μM	–	≧200 μM	≧200 μM	≧200 μM	≧200 μM	–	38 µM (≈ 139 µg/mL)
CC[C@H](C)[C@H](NC(=O)[C@H](CCC(=O)O)NC(=O)[C@H](Cc1cnc[nH]1)NC(=O)[C@H](CC(C)C)NC(=O)[C@H](CCC(=O)O)NC(=O)[C@H](C)NC(=O)[C@H](CO)NC(=O)[C@H](CC(C)C)NC(=O)[C@H](CCCNC(=N)N)NC(=O)CNC(=O)[C@H](CC(C)C)NC(=O)[C@H](C)NC(=O)[C@H](C)NC(=O)[C@@H](NC(=O)[C@H](CO)NC(=O)[C@H](CC(C)C)NC(=O)[C@H](CCC(=O)O)NC(=O)[C@H](CO)NC(=O)[C@H](C)NC(=O)[C@H](CCC(=O)O)NC(=O)CCCCCCCCCCCCCCCCC(=O)O)[C@@H](C)O)C(=O)N[C@@H](C)C(=O)N[C@H](C(=O)N[C@@H](CC(C)C)C(=O)N1CCC[C@H]1C(=O)N[C@@H](CCCNC(=N)N)C(=O)N[C@H](C(=O)N[C@@H](CCC(=O)O)C(=O)N[C@H](C(=O)NCC(=O)N1CCC[C@H]1C(=O)N[C@@H](CCC(=O)O)C(=O)N[C@@H](CO)C(=O)N1CCC[C@H]1C(N)=O)[C@@H](C)O)[C@@H](C)O)[C@@H](C)O [compound 12, [N-terminal(C18 diacid), 20I]mimylin] ({C18 diacid}-EASELSTAALGRLSAELHEIATLPRTETGPESP-NH2)	≧200 μM	≧200 μM	≧200 μM	≧200 μM	≧200 μM	≧200 μM	≧200 μM	≧200 μM	–	–
